pIC50: −log10 of the molar value.
Legend:
BTK = target: T1, BTK (Mus musculus, UniProt P35991); test: BTK occupancy in spleen and lung, RPA study; assay type: in vivo, mice; conditions: single dose 30 mg/kg, 3 hours after eliciting the Arthus reaction
T1 construct: each spleen was crushed and lysed in a GentleMACS; from tissue; host or cells: mouse spleen (BALB/c, C57Bl6) and lung (C57Bl6)
Experimental: For BTK occupancy in spleen, the experiment was performed as described in the PCA example. For lung BTK occupancy, lysates were prepared from complete lungs including tracheas after perfusing the organs with saline to remove blood in the same manner as for spleen (except that the lysis buffer volume was 500 μl). The lung lysates were then analyzed for free BTK in a separate ELISA. This consisted of a capture step with anti-BTK (Cell Signaling Technologies, #8547, carrier free). Then the captured BTK protein was incubated with 1 μM of covalent biotinylated BTK probe for 1 hour at room temperature. The BTK-bound biotinylated probe was detected by with a streptavidin-HRP conjugate (Cell Signaling Technologies, #3999, used at a dilution of 1:1′000) and a chemiluminescence substrate (Supersignal ELISA Pico, Thermo Scientific, #37070). The luminescence values were corrected for ELISA background reads from control samples measured in absence of BTK capture antibody for the total BTK ELISA and in absence of probe for the BTK-bound ELISA, respectively. The relative BTK occupancy was calculated as the ratio of free BTK (signal of the covalent biotinylated probe bound BTK) to total BTK for each sample: R=free BTK/total BTK. The individual Ri values were then normalized to the vehicle group and expressed as percent occupancy: (average of Ri vehicle group−Ri)/(average of Ri vehicle group)*100%.

BALB/c mice = test: Ovalbumin induced anaphylaxis mouse model: BALF cell counts; assay type: in vivo; conditions: 10 mg/kg, 30 mg/Kg p.o. B.I.D., OVA-sensitized mice with poly I:C
Experimental: This experiment was carried out to investigate the anti-inflammatory effect of LOU064 (10 mg and 30 mg/Kg in OVA-sensitized mice instilleed with polyinosine-polycytidylic acid (poly I: C).
Mice were actively sensitised with ovalbumin (15 μg, s.c.) and 25 μL of Imject Alum on days 0, 7 and 14. In order to elicit a local inflammatory response in the lung, mice were repeatedly exposed on days 21-24 with an aerosol of 1% w/v ovalbumin in phosphate buffered saline (PBS), generated with an ultrasonic nebuliser (Aerogen) for 20 min. 16 h after the final exposure to OVA on day 24, polyinosine-polycytidylic acid (poly I: C, 100 μg/animal) or the vehicle (PBS) was delivered intratracheally with a Microsprayer (model IA-1C with FMJ-250 high pressure syringe, Penn-Century) under anaesthesia with ketamine (100 mg/Kg, i.p.) and xylazine (10 mg/Kg, i.p.). […]
24 h after the final OVA challenge, blood samples were collected by venepuncture into pre-chilled Li Hep tubes. […] The cell pellets were then re-suspended in 1.6 mL of phosphate buffered saline and the BAL cells were then analysed for total and differential numbers. Total and differential cell counts of the BAL fluid samples were measured using a XT-2000iV analyser (Sysmex). […]

PBMC-derived mast cells = test: FcER-induced degranulation of PBMC-derived mast cells; assay type: cell-based; conditions: Homo sapiens, Mast cell; n=7 donors; read-out: IC50, degranulation of primary human PBMC-derived mast cells (β-tryptase)
Excerpt: cells (PBMC)-derived mast cells Rationale and method: Primary human mast cells were derived from CD34-positive progenitor cells isolated from PBMC ((Neuberger, M.S. et al. (1985), Nature 314 (6008), pp 268-70. doi: 10.1038/314268a0). Blood from healthy volunteers was provided under informed consent and collected through the Novartis Tissue Donor Program in accordance with the Swiss Human Research Act and approval of the responsible ethic committee (Ethikkommission Nordwest-und Zentralschweiz). Briefly, CD34-positive cells were isolated from peripheral blood by positive selection and cultured in medium containing SCF, IL-6 and IL-3. After a 6 week differentiation culture, mast cells were harvested and characterized phenotypically for expression of c-Kit (CD117) and FcERI. The degranulation is based on NIP haptenized BSA and the NIP-specific chimeric IgE antibody JW8 (described in RD-2013-00412). The mast cells were sensitized with JW8 IgE antibody and then incubated with serial compound dilutions for 30 minutes at 37° C. Then degranulation was triggered by adding haptenized NIP-BSA to crosslink the FcER. After one hour, supernatants were collected and analyzed for β-tryptase levels.

patients with CSU [1] = test: Phase 2b trial in CSU: efficacy; assay type: in vivo, human; conditions: 25 mg b.i.d. regimen, 12 weeks
Experimental: In a Phase 2b, randomized, double-blind, placebo-controlled trial evaluating the efficacy and safety of remibrutinib over 12 weeks in patients inadequately controlled by H1-antihistamines, with at least moderately active CSU, patients received remibrutinib 10 mg q.d. (once daily), 35 mg q.d., 100 mg q.d., 10 mg b.i.d. (twice daily), 25 mg b.i.d., 100 mg b.i.d., or placebo (1:1:1:1:1:1:1 ratio).

patients with CSU [2] = test: Phase 2b core study in CSU: safety; assay type: in vivo, human
[3] = Co-administration with oral contraceptives; assay type: in vivo
Excerpt: Therefore, in a preferred embodiment, LOU064 is co-administered with oral contraceptives.

healthy atopic subjects = conditions: doses of greater than or equal to 100 mg qd, MAD, across all tests; cited from earlier work
[4] = Core study, Any dose, N = 267, listed as remibrutinib

T1 sequence (P35991 whole entry): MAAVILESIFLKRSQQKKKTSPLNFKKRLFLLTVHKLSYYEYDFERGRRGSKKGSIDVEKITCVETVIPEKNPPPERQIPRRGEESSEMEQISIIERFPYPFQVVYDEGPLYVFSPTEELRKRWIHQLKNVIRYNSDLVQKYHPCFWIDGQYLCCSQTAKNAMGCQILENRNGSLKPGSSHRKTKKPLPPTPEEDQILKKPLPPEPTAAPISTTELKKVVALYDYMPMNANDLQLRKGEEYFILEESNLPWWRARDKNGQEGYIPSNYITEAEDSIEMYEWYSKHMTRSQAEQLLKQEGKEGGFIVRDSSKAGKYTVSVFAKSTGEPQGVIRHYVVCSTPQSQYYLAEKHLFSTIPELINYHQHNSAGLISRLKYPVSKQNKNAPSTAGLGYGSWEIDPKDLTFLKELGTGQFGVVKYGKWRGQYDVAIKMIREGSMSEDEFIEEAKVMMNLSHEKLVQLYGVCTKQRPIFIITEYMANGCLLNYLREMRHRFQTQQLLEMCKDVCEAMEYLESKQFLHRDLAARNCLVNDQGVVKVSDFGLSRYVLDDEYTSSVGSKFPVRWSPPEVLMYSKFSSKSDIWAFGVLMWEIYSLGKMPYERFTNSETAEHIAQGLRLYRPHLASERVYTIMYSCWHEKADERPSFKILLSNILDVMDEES

C=CC(=O)N(C)CCOc1c(N)ncnc1-c1cc(F)cc(NC(=O)c2ccc(C3CC3)cc2F)c1C [LOU064, N-(3-(6-amino-5-(2-(N-methylacrylamido)ethoxy)pyrimidin-4-yl)-5-fluoro-2-methylphenyl)-4-cyclopropyl-2-fluorobenzamide]
BTK occupancy kinetic in spleen and lung compared to effect on skin swelling (BTK): very similar kinetic
Numbers of cells involved in lung anaphylaxis (BALF) (BALB/c mice): significantly reduced
pIC50 (PBMC-derived mast cells): 8.24
Efficacy in CSU (patients with CSU [1]): particularly effective
Patients with newly occurring ALT>5xULN (patients with CSU [2]; CS, normalised on treatment): 1 patient
Patients with ≥1 AE (patients with CSU [2]; Core study, 10 mg b.i.d., N = 44): 21 n
Patients with ≥1 AE (patients with CSU [2]; Core study, 10 mg q.d., N = 44): 29 n
Patients with ≥1 AE (patients with CSU [2]; Core study, 25 mg b.i.d., N = 43): 26 n
Patients with ≥1 AE (patients with CSU [2]; Core study, 35 mg q.d., N = 44): 23 n
Patients with ≥1 AE (patients with CSU [2]; Core study, 100 mg b.i.d., N = 45): 29 n
Patients with ≥1 AE (patients with CSU [2]; Core study, 100 mg q.d., N = 47): 27 n
Headache (AEs by PT) (patients with CSU [2]; [4]): 9.7%
Infections and infestations (AEs by primary system organ class) (patients with CSU [2]; [4]): 24.0%
Skin and subcutaneous tissue disorders (AEs by primary system organ class) (patients with CSU [2]; [4]): 16.9%
Impact on exposure and efficacy of oral contraceptives (ethinylestradiol or levonorgestrel) [3]: without a major impact
Average decrease in wheal size (SPT) (healthy atopic subjects): 3 mm

From patent US20250032488A1, “METHODS OF TREATMENT USING LOU064” (NOVARTIS AG, priority 2021, published 2025)
